Source: patent US4118482A (priority 1977, dated 1978)
Read-outs that look alike come from different tables or passages of the source. Numbered stars: 1 amine (or outer) side, 2 acyl side, 3 side chain; on linkers, the order of the positions; unused ones are H or OH. Bridge positions count the residues as written; N and C are the ends. Square brackets hold non-standard residues; d marks the D form. Peptide text beside a SMILES is read from it. I, II: the chains in the order shown. Actinocin(9to1) = Cc1c2oc3c(C)ccc(C(=O)[*:1])c3nc-2c(C(=O)[*:2])c(N)c1=O; NMeV = CN[CH](C(=O)O)C(C)C; Aze = O=C(O)[CH]1CCN1; Sar = CNCC(=O)O

Legend:
[1] = tested on: advanced Ridgeway osteogenic sarcoma; details: cited from earlier work
ADVANCED P388 LEUKEMIA = assay: Advanced P388 leukemia in mice, treatment Q4D x 3 at days 5, 9, 13; type: in vivo; details: Q4D x 3 days 5, 9, 13, advanced P388; for SURVIAL TIME MEDIAN: controls 10 days
Text: (§1) The National Cancer Institute conducted a screening test on samples of both Azetomicin I (3' prolyl, 3' azet) and Azetomicin II (3', 3' azet) as well as on Dactinomycin (3', 3' prolyl) that is also known as Actinomycin D or C1. The Azetomicin and Dactinomycin molecules are identical, with the exception of the 3' amino acid position on the peptides, wherein the 3' positions, in the case of Dactinomycin are both prolyl; in the case of the Azetomicin I are prolyl and azetidine-2-carboxyl; and in the cae of Azetomicin II are both azetidine-2-carboxyl.
ADVANCED P388 LEUKEMIA : Q4D × 3 AT DAYS 5, 9, 13 TREATMENT

P388 leukemia = P388 leukemia in mice, treatment QD at days 1-9 (National Cancer Institute screen); type: in vivo; details: for 5 ILS* (increased life span) / 60 DAY "CURES" / SURVIAL TIME MEDIAN: QD days 1-9, P388 mice; for SURVIAL TIME MEDIAN: controls 10 days; for activity compared with Dactinomycin (summary of Table I): P388 leukemia mice
Text: as §1
P 388 LEUKEMIA : QD AT DAYS 1-9 TREATMENT

[2] = Storage stability in aqueous solution; type: physicochemical; details: 0°-25° C, pH range of 5-8, maintained in the dark
Protocol: The major products of interest were determined to be Azetomicin I and Azetomycin II. They were stable after storage at 0°-25° C in aqueous solution in the pH range of 5-8 for at least 5 days when maintained in the dark.

Rous sarcoma virus = assay: Development of visible tumors in chicks infected with Rous sarcoma virus, single injection; type: in vivo; details: injected once; compared with untreated or saline injected controls
Protocol: In another test, both Azetomicin I and Azetomicin II, were injected once into chicks infected with Rous sarcoma virus. The development of visible tumors was decreased by over 80% as compared with untreated or saline injected controls.

[3] = tested on: Bacillus subtilis, Staphylococcus aureus and Staphylococcus albus; assay: Inhibition of bacterial growth (cross section of gram-positive and gram-negative bacteria); type: cell-based
[4] = Toxicity per mg compared with Actinomicin D
[5] = tested on: advanced Ridgeway osteogenic sarcoma; assay: Drug-induced regression of advanced Ridgeway osteogenic sarcoma in mice; type: in vivo
Protocol: A sample of Azetomicin I was tested on mice infected with advanced Ridgeway osteogenic sarcoma. […] Data supplied by Dr. F. Schabel and his coworkers at Southern Research Institute has been collected in Table II below, with the results from Azetomicin I testing also noted: […]

[6] = schedule day 12, data of Southern Research Institute
[7] = schedule day 12, Azetomicin I testing

## CNNCc1ccc(C(=O)NC(C)C)cc1 [PROCARBAZINE]
[1]; schedule days 12-20
  "CURES" (Number/Total): 0/10
  REGRESSION 50+%-PARTIAL (Number/Total): 0/10
  REGRESSION COMPLETE (Number/Total): 0/10

## CO[C@@]12[C@H](COC(N)=O)C3=C(C(=O)C(C)=C(N)C3=O)N1C[C@@H]1N[C@@H]12 [MITOMYCIN-C]
[1]; [6]
  "CURES" (Number/Total): 0/10
  REGRESSION 50+%-PARTIAL (Number/Total): 0/10
  REGRESSION COMPLETE (Number/Total): 0/10

## COc1cccc2c1C(=O)c1c(O)c3c(c(O)c1C2=O)C[C@@](O)(C(=O)CO)C[C@@H]3O[C@H]1C[C@H](N)[C@H](O)[C@H](C)O1 [ADRIAMYCIN]
[1]; [6]
  "CURES" (Number/Total): 0/8
  REGRESSION 50+%-PARTIAL (Number/Total): 7/8
  REGRESSION COMPLETE (Number/Total): 7/8

## O=C(O)CCCc1ccc(N(CCCl)CCCl)cc1 [CHLORAMBUCIL]
[1]; [6]
  "CURES" (Number/Total): 0/10
  REGRESSION 50+%-PARTIAL (Number/Total): 0/10
  REGRESSION COMPLETE (Number/Total): 0/10

## CN(C)/N=N/c1[nH]cnc1C(N)=O [DTIC]
[1]; [6]
  "CURES" (Number/Total): 0/10
  REGRESSION 50+%-PARTIAL (Number/Total): 0/10
  REGRESSION COMPLETE (Number/Total): 0/10

## CN(Cc1cnc2nc(N)nc(N)c2n1)c1ccc(C(=O)N[C@@H](CCC(=O)O)C(=O)O)cc1 [METHOTREXATE]
[1]; schedule days 12,16,20,24
  "CURES" (Number/Total): 0/10
  REGRESSION 50+%-PARTIAL (Number/Total): 0/10
  REGRESSION COMPLETE (Number/Total): 0/10

## S=P(N1CC1)(N1CC1)N1CC1 [THIO-TEPA]
[1]; [6]
  "CURES" (Number/Total): 0/10
  REGRESSION 50+%-PARTIAL (Number/Total): 0/10
  REGRESSION COMPLETE (Number/Total): 0/10

## Cc1c2oc3c(C)ccc(C(=O)N[C@@H]4C(=O)N[C@H](C(C)C)C(=O)N5CCC[C@H]5C(=O)N(C)CC(=O)N(C)[C@@H](C(C)C)C(=O)O[C@@H]4C)c3nc-2c(C(=O)N[C@@H]2C(=O)N[C@H](C(C)C)C(=O)N3CCC[C@H]3C(=O)N(C)CC(=O)N(C)[C@@H](C(C)C)C(=O)O[C@@H]2C)c(N)c1=O [DACTINOMYCIN, Dactinomycin] (I: T[dV]P[Sar][NMeV] / II: T[dV]P[Sar][NMeV]; ester I:1-I:C, II:1-II:C; linker I:N-II:N via Actinocin(9to1))
ADVANCED P388 LEUKEMIA; 0.15 Mg/Kg/Inj.
  5 ILS* (increased life span): 95%
  60 DAY "CURES": 0
  SURVIAL TIME MEDIAN: 19.5 days
P388 leukemia; 0.05 Mg/Kg/Inj.
  5 ILS* (increased life span): 180%
  60 DAY "CURES": 0%
  SURVIAL TIME MEDIAN: 28 days
P388 leukemia; 0.1 Mg/Kg/Inj.
  5 ILS* (increased life span): 115%
  60 DAY "CURES": 12%
  SURVIAL TIME MEDIAN: 21.5 days

## N[C@@H](Cc1ccc(N(CCCl)CCCl)cc1)C(=O)O [L-SARCOLYSIN]
[1]; [6]
  "CURES" (Number/Total): 4/8
  REGRESSION 50+%-PARTIAL (Number/Total): 8/8
  REGRESSION COMPLETE (Number/Total): 7/8

## O=P1(N(CCCl)CCCl)NCCCO1 (centres unmarked) [CYCLOPHOSPHAMIDE]
[1]; [6]
  "CURES" (Number/Total): 3/8
  REGRESSION 50+%-PARTIAL (Number/Total): 8/8
  […] (Number/Total): 8/8

## O=NN(CCCl)C(=O)NCCCl [BCNU]
[1]; [6]
  "CURES" (Number/Total): 0/8
  REGRESSION 50+%-PARTIAL (Number/Total): 0/8
  REGRESSION COMPLETE (Number/Total): 0/8

## COc1cccc2c1C(=O)c1c(O)c3c(c(O)c1C2=O)C[C@@](O)(C(C)=O)C[C@@H]3O[C@H]1C[C@H](N)[C@H](O)[C@H](C)O1 [DAUNOMYCIN]
[1]; schedule days 12-17
  "CURES" (Number/Total): 0/12
  REGRESSION 50+%-PARTIAL (Number/Total): 9/12
  REGRESSION COMPLETE (Number/Total): 3/12

## O=c1[nH]cc(F)c(=O)[nH]1 [FLUOROURACIL]
[1]; schedule days 12,16,20,24
  "CURES" (Number/Total): 0/10
  REGRESSION 50+%-PARTIAL (Number/Total): 8/10
  REGRESSION COMPLETE (Number/Total): 5/10

## MITHRAMYCIN
[1]; [6]
  "CURES" (Number/Total): 0/7
  REGRESSION 50+%-PARTIAL (Number/Total): 0/7
  REGRESSION COMPLETE (Number/Total): 0/7

## L-ASPARAGINASE
[1]; [6]
  "CURES" (Number/Total): 0/10
  REGRESSION 50+%-PARTIAL (Number/Total): 0/10
  REGRESSION COMPLETE (Number/Total): 0/10

## CC[C@]1(O)C[C@H]2CN(CCc3c([nH]c4ccccc34)[C@@](C(=O)OC)(c3cc4c(cc3OC)N(C=O)[C@H]3[C@@](O)(C(=O)OC)[C@H](OC(C)=O)[C@]5(CC)C=CCN6CC[C@]43[C@@H]65)C2)C1 [VINCRISTINE]
[1]; schedule days 12,16,20
  "CURES" (Number/Total): 0/10
  REGRESSION 50+%-PARTIAL (Number/Total): 10/10
  REGRESSION COMPLETE (Number/Total): 8/10

## S=c1nc[nH]c2nc[nH]c12 [MERCAPTOPURINE]
[1]; schedule days 12-22
  "CURES" (Number/Total): 0/10
  REGRESSION 50+%-PARTIAL (Number/Total): 9/10
  REGRESSION COMPLETE (Number/Total): 6/10

## Nc1ncn([C@@H]2O[C@H](CO)[C@@H](O)[C@H]2O)c(=O)n1 [AZACYTIDINE]
[1]; schedule days 12,16,20,24
  "CURES" (Number/Total): 0/7
  REGRESSION 50+%-PARTIAL (Number/Total): 0/7
  REGRESSION COMPLETE (Number/Total): 0/7

## Azetomicin I [AZETOMICIN-I]
[2]
  time stable after storage in aqueous solution: at least 5 days
Rous sarcoma virus
  decrease of development of visible tumors: over 80%
[3]
  activity against bacterial growth relative to Actinomicin D: 70%
[4]
  toxicity/mg. compared with Actinomicin D: substantially less toxic/mg.
ADVANCED P388 LEUKEMIA; 0.6 Mg/Kg/Inj.
  5 ILS* (increased life span): 270%
  60 DAY "CURES": 0
  SURVIAL TIME MEDIAN: 37 days
[5]; of 10 animals treated, 12th day only injection schedule
  animals with complete regression: 10 animals
[5]; [7]
  "CURES" (Number/Total): 10/10
  REGRESSION 50+%-PARTIAL (Number/Total): 10/10
  REGRESSION COMPLETE (Number/Total): 10/10
P388 leukemia; 0.05 Mg/Kg/Inj.
  5 ILS* (increased life span): 150%
  60 DAY "CURES": 0%
  SURVIAL TIME MEDIAN: 25 days
P388 leukemia; 0.1 Mg/Kg/Inj.
  5 ILS* (increased life span): 155%
  60 DAY "CURES": 0%
  SURVIAL TIME MEDIAN: 25.5 days
P388 leukemia; 0.2 Mg/Kg/Inj.
  5 ILS* (increased life span): ≥ 500%
  60 DAY "CURES": 60%
  SURVIAL TIME MEDIAN: ≥ 60 days
P388 leukemia
  activity compared with Dactinomycin (summary of Table I): clearly greater activity than both

## C[C@]12C=CC(=O)C=C1CC[C@@H]1[C@@H]2C(=O)C[C@@]2(C)[C@H]1CC[C@]2(O)C(=O)CO [PREDNISONE]
[1]; schedule days 12,16,20
  "CURES" (Number/Total): 0/10
  REGRESSION 50+%-PARTIAL (Number/Total): 0/10
  REGRESSION COMPLETE (Number/Total): 0/10

## Cc1c2oc3c(C)ccc(C(=O)NC4C(=O)NC(C(C)C)C(=O)N5CCC5C(=O)N(C)CC(=O)N(C)C(C(C)C)C(=O)OC4C)c3nc-2c(C(=O)NC2C(=O)NC(C(C)C)C(=O)N3CCC3C(=O)N(C)CC(=O)N(C)C(C(C)C)C(=O)OC2C)c(N)c1=O (centres unmarked) [AZETOMICIN-II, Azetomicin II] (I: TV[Aze][Sar][NMeV] / II: TV[Aze][Sar][NMeV]; ester I:1-I:C, II:1-II:C; linker I:N-II:N via Actinocin(9to1); configuration not given here)
[2]
  time stable after storage in aqueous solution: at least 5 days
Rous sarcoma virus
  decrease of development of visible tumors: over 80%
[3]
  activity against bacterial growth relative to Actinomicin D: 50%
[4]
  toxicity/mg. compared with Actinomicin D: substantially less toxic/mg.
ADVANCED P388 LEUKEMIA; 0.6 Mg/Kg/Inj.
  5 ILS* (increased life span): 150%
  60 DAY "CURES": 0
  SURVIAL TIME MEDIAN: 25 days
P388 leukemia; 0.05 Mg/Kg/Inj.
  5 ILS* (increased life span): 125%
  60 DAY "CURES": 0%
  SURVIAL TIME MEDIAN: 22.5 days
P388 leukemia; 0.1 Mg/Kg/Inj.
  5 ILS* (increased life span): 130%
  60 DAY "CURES": 12%
  SURVIAL TIME MEDIAN: 23 days
P388 leukemia
  activity compared with Dactinomycin (summary of Table I): roughly comparable in activity to Dactinomycin

## Nc1ccn([C@@H]2O[C@H](CO)[C@@H](O)[C@@H]2O)c(=O)n1 [ARA-C]
[1]; schedule days 12,12,20(q3h)
  "CURES" (Number/Total): 0/10
  REGRESSION 50+%-PARTIAL (Number/Total): 7/10
  REGRESSION COMPLETE (Number/Total): 3/10

## O=NN(CCCl)C(=O)NC1CCCCC1 [CCNU]
[1]; [6]
  "CURES" (Number/Total): 0/8
  REGRESSION 50+%-PARTIAL (Number/Total): 0/8
  REGRESSION COMPLETE (Number/Total): 0/8
